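96-well plates; 48 h exposure; 5 concentrations. Endpoints by linear interpolation between flanking doses. Not reached: highest tested concentration assigned. The concentration for full growth arrest is given as TGI.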 Bounds are passed on as bounds.

Some test systems named below: SNB-19 CNS; OVCAR-3 ovarian; SF-295 CNS; K-562 leukemia; HCT-15 colon; MALME-3M melanoma; MDA-MB-435; NCI-H522 lung; TK-10 renal; IGROV1 ovarian.
Common to all, as to assay: inhibition of tumour cell growth, NCI panel, 48 h

Consider `CC(=O)NC1C(OCc2ccccc2)OC(CO)C(O)C1OCC(=O)N[C@@H](C)C(=O)N[C@H](CCC(=O)NCCNc1ccc([N+](=O)[O-])c2[nH]c3ccccc3c(=O)c12)C(N)=O` (some centres undefined), for which the TGI in the test with SNB-19 CNS was 93.2 µM; in the test on OVCAR-3 ovarian, greater than 100 µM; with SF-295 CNS, greater than 100 µM; in the test on K-562 leukemia it was greater than 100 µM; with HCT-15 colon, 44.9 µM; in the test with MALME-3M melanoma, greater than 100 µM. The TGI with MDA-MB-435 is greater than 100 µM; with NCI-H522 lung, greater than 100 µM; in the test with TK-10 renal, 42.3 µM.

Regarding `NS(=O)(=O)c1nnc(NS(=O)(=O)c2ccc([N+](=O)[O-])cc2)s1`, the TGI in the test on OVCAR-3 ovarian, in the test with SF-295 CNS, with K-562 leukemia, in the test with IGROV1 ovarian, with HCT-15 colon and in the test on MALME-3M melanoma was greater than 100 µM in each case. The TGI with MDA-MB-435 is greater than 100 µM; with NCI-H522 lung, 77.5 µM; in the test on TK-10 renal, greater than 100 µM.

As to `O=C1/C(=C/c2ccccc2)CCCc2ccccc21`, the TGI in the test with SNB-19 CNS was found to be 29.3 µM; with OVCAR-3 ovarian, 35.2 µM; in the test on SF-295 CNS it was 35.9 µM; in the test with K-562 leukemia, 49.4 µM; in the test with IGROV1 ovarian it was 38.8 µM; with HCT-15 colon, 32.3 µM. Also, the TGI stood at 42 µM in the test with MALME-3M melanoma, 38.9 µM in the test on MDA-MB-435, 51.6 µM in the test on NCI-H522 lung and 37.5 µM in the test on TK-10 renal.

Turning to `COC(=O)CNC(=O)CCC(C)[C@H]1CCC2C3C(C[C@H](OC(C)=O)[C@@]21C)[C@@]1(C)CCC2(C[C@H]1C[C@H]3OC(C)=O)OOC1(CCCCC1)OO2` (some centres undefined), the TGI in the test on SNB-19 CNS turned out to be 17.8 µM; with OVCAR-3 ovarian, 3.77 µM; with SF-295 CNS it was 18.4 µM; in the test on K-562 leukemia, 9.51 µM; in the test on IGROV1 ovarian, 2.98 µM; with HCT-15 colon it was 8.65 µM. Also, the TGI came out at 6.22 µM in the test with MALME-3M melanoma, 4.06 µM with MDA-MB-435, 3.14 µM in the test with NCI-H522 lung and 24.2 µM with TK-10 renal.

For `C#C[C@]1(O)CC[C@H]2[C@@H]3CCC4=C/C(=N/OC(=O)c5cccc6c(=O)c7ccccc7[nH]c56)CCC4[C@H]3CC[C@@]21CC` (some centres undefined), the TGI is greater than 100 µM in the test on SNB-19 CNS; greater than 61.1 µM in the test with OVCAR-3 ovarian; greater than 100 µM in the test with SF-295 CNS; greater than 82.3 µM in the test with K-562 leukemia; greater than 100 µM in the test on IGROV1 ovarian; greater than 47.7 µM with HCT-15 colon. In addition, the TGI with MALME-3M melanoma is greater than 100 µM; in the test on MDA-MB-435, greater than 100 µM; with NCI-H522 lung it was 56.1 µM; with TK-10 renal it was greater than 100 µM.

Turning to `COc1ccc2c(c1OC)C(=O)O[C@@H]2[C@H]1c2c(cc3c(c2OC)OCO3)CCN1C`, the TGI with SNB-19 CNS is greater than 100 µM; in the test with OVCAR-3 ovarian, 49.9 µM; in the test on SF-295 CNS, greater than 100 µM; with K-562 leukemia it was greater than 100 µM; in the test with IGROV1 ovarian, greater than 100 µM; in the test on HCT-15 colon it was greater than 100 µM. For the same molecule, the TGI in the test on MALME-3M melanoma is 79.3 µM; in the test on MDA-MB-435, 32.2 µM; in the test with NCI-H522 lung it was greater than 100 µM.

On to `O=P1(Cc2ccccc2)c2ccccc2-c2ccccc21`, for which the TGI in the test with SNB-19 CNS was greater than 37.8 µM; in the test with OVCAR-3 ovarian, greater than 55.4 µM; with SF-295 CNS it was 40.5 µM; in the test on K-562 leukemia, greater than 100 µM; in the test on IGROV1 ovarian, 19.3 µM; in the test with HCT-15 colon, greater than 100 µM. Also, the TGI in the test with MALME-3M melanoma amounted to 12.7 µM; with MDA-MB-435, 12.3 µM; in the test with NCI-H522 lung it was 14.1 µM; with TK-10 renal it was 36 µM.

On to `O=C1NC(=Nc2ccccc2Cl)N/C1=C\c1ccc(Cl)cc1Cl`, for which the TGI with SNB-19 CNS, with OVCAR-3 ovarian, with SF-295 CNS, in the test on K-562 leukemia, in the test with IGROV1 ovarian and in the test with HCT-15 colon was greater than 100 µM each time. The TGI with MALME-3M melanoma, in the test with MDA-MB-435, in the test on NCI-H522 lung and in the test on TK-10 renal was greater than 100 µM each time.

Regarding `Cc1cc(N(CCC#N)CCC#N)ccc1/C(N=Nc1ccc([N+](=O)[O-])cc1)=N\NC(=O)c1ccccc1`, the TGI in the test on SNB-19 CNS, with OVCAR-3 ovarian, in the test on SF-295 CNS, in the test on K-562 leukemia, with IGROV1 ovarian and in the test with HCT-15 colon was greater than 100 µM in each case. Also, the TGI with MALME-3M melanoma was greater than 100 µM; in the test on MDA-MB-435, greater than 100 µM; in the test on NCI-H522 lung, 44.7 µM; in the test on TK-10 renal, greater than 100 µM.

In the case of `COCOc1cc(OC)ccc1C/C(=N/O)C(=O)OC`, the TGI in the test on SNB-19 CNS, in the test with OVCAR-3 ovarian, with SF-295 CNS, with K-562 leukemia, with IGROV1 ovarian and in the test on HCT-15 colon was greater than 100 µM in each case. In addition, the TGI in the test on MALME-3M melanoma, in the test on MDA-MB-435, in the test on NCI-H522 lung and in the test on TK-10 renal was greater than 100 µM in each case.

Regarding `O=c1[nH]c(=O)n([C@@H]2O[C@H](CO)[C@@H](O)[C@@H]2F)cc1I`, the TGI in the test with SNB-19 CNS, in the test on OVCAR-3 ovarian, with SF-295 CNS, with K-562 leukemia, in the test on IGROV1 ovarian and in the test with HCT-15 colon was greater than 100 µM in each case. Also, the TGI in the test on MALME-3M melanoma, with MDA-MB-435, in the test with NCI-H522 lung and with TK-10 renal was greater than 100 µM each time.

Regarding `CCOC1CCN(C(=O)c2ccccc2)O1` (centres undefined), the TGI with SNB-19 CNS, in the test with OVCAR-3 ovarian, in the test with SF-295 CNS, in the test on K-562 leukemia, in the test on IGROV1 ovarian and with HCT-15 colon was greater than 10 µM in each case. Further, the TGI with MALME-3M melanoma, in the test on MDA-MB-435, in the test on NCI-H522 lung and in the test with TK-10 renal was greater than 10 µM each time.

In the case of `CNC(=S)/C(C#N)=C(\N)N1CCCC1`, the TGI with SNB-19 CNS, in the test on OVCAR-3 ovarian, in the test with K-562 leukemia, in the test on IGROV1 ovarian, in the test with HCT-15 colon and with MALME-3M melanoma was greater than 100 µM in each case. For the same molecule, the TGI with MDA-MB-435, with NCI-H522 lung and in the test with TK-10 renal was greater than 100 µM throughout.

Turning to `N#Cc1c(-c2ccc([N+](=O)[O-])cc2)cc(-c2ccc(Nc3ccnc4cc(Cl)ccc34)cc2)nc1N`, the TGI in the test on SNB-19 CNS was 47.4 µM; in the test on OVCAR-3 ovarian, 15.8 µM; with SF-295 CNS it was 37.6 µM; in the test with K-562 leukemia it was greater than 33.1 µM; in the test on IGROV1 ovarian, 15 µM; in the test with HCT-15 colon, 18.6 µM. The TGI stood at 39.9 µM in the test on MALME-3M melanoma, 17.5 µM in the test with MDA-MB-435, 11.2 µM in the test with NCI-H522 lung and 43 µM with TK-10 renal.

For `C[C@H]1O[C@@H](C(C)(C)C)OC(=O)[C@@H]1C(OC(=O)c1ccccc1)c1cccc2ccccc12` (some centres undefined), the TGI in the test with SNB-19 CNS, in the test on OVCAR-3 ovarian, in the test on SF-295 CNS, in the test on K-562 leukemia, in the test with IGROV1 ovarian and with HCT-15 colon was greater than 100 µM throughout. For the same molecule, the TGI in the test on MALME-3M melanoma, in the test on MDA-MB-435, with NCI-H522 lung and in the test on TK-10 renal was greater than 100 µM each time.

For `COc1cccc2cc(C(=O)NC34CC5CC(CC(C5)C3)C4)c(=N)oc12`, the TGI was greater than 100 µM in the test on SNB-19 CNS; greater than 73.2 µM in the test on OVCAR-3 ovarian; greater than 100 µM in the test with SF-295 CNS; greater than 100 µM in the test with K-562 leukemia; greater than 85.7 µM with IGROV1 ovarian; greater than 100 µM with HCT-15 colon. Also, the TGI in the test on MALME-3M melanoma is greater than 100 µM; in the test with MDA-MB-435, greater than 100 µM; in the test on NCI-H522 lung it was greater than 88.7 µM; with TK-10 renal it was greater than 100 µM.

For the molecule `C=CC[C@]1(C2=NC(C)(C)CO2)c2ccccc2-c2ccccc2[C@H]1C(C)=O`, the TGI in the test with SNB-19 CNS is 34.7 µM; with OVCAR-3 ovarian it was 9.08 µM; with SF-295 CNS, 19.1 µM; in the test with K-562 leukemia, 29.8 µM; with IGROV1 ovarian, greater than 48.6 µM; with HCT-15 colon, 26.4 µM. Moreover, the TGI stood at 21 µM with MALME-3M melanoma, 14.7 µM in the test with MDA-MB-435, 9.45 µM with NCI-H522 lung and 34.4 µM with TK-10 renal.

For the molecule `CCC(=O)Nc1ccc(NCC(=O)Nc2ccc(OC)cc2)cc1`, the TGI in the test on SNB-19 CNS is 31.3 µM; in the test on OVCAR-3 ovarian, 78.6 µM; in the test on SF-295 CNS it was greater than 100 µM; in the test with K-562 leukemia it was greater than 100 µM; in the test with IGROV1 ovarian, 78 µM; with HCT-15 colon it was greater than 100 µM. Also, the TGI is 49.5 µM in the test with MALME-3M melanoma, greater than 100 µM in the test with MDA-MB-435 and 29.5 µM in the test on NCI-H522 lung.

As to `CC(=O)n1nc(-c2ccc3ccccc3c2)nc1C`, the TGI with OVCAR-3 ovarian, in the test with SF-295 CNS, in the test on K-562 leukemia, with IGROV1 ovarian, in the test with HCT-15 colon and in the test on MALME-3M melanoma was greater than 100 µM in each case. For the same molecule, the TGI in the test with MDA-MB-435, with NCI-H522 lung and with TK-10 renal was greater than 100 µM each time.

(Values after PubChem BioAssay (NCI).)
